Reference: ChEMBL document CHEMBL4507282, “Data for DCP probe BI-1950” (2021)

Columns and labels:
[1] = system: Receptor-type tyrosine-protein kinase FLT3 (Homo sapiens), P36888 [UNDEFINED MUTATION]; conditions: Compound concentration 1000.0 nM
[2] = molecular target: Cyclin-dependent kinase 3 (Homo sapiens) (UniProt Q00526); conditions: Compound concentration 1000.0 nM
[3] = molecular target: D(3) dopamine receptor (Homo sapiens) (UniProt P35462); conditions: Compound concentration 10.0 uM
[4] = molecular target: G protein-coupled receptor kinase 4 (Homo sapiens) (UniProt P32298); conditions: Compound concentration 1000.0 nM
[5] = molecular target: Tyrosine-protein kinase BTK (Homo sapiens) (UniProt Q06187); conditions: Compound concentration 1000.0 nM
[6] = molecular target: Serine/threonine-protein kinase N1 (Homo sapiens) (UniProt Q16512); conditions: Compound concentration 1000.0 nM
Serine/threonine-protein kinase N1 (Homo sapiens), sequence (Q16512 2-942 limits assumed): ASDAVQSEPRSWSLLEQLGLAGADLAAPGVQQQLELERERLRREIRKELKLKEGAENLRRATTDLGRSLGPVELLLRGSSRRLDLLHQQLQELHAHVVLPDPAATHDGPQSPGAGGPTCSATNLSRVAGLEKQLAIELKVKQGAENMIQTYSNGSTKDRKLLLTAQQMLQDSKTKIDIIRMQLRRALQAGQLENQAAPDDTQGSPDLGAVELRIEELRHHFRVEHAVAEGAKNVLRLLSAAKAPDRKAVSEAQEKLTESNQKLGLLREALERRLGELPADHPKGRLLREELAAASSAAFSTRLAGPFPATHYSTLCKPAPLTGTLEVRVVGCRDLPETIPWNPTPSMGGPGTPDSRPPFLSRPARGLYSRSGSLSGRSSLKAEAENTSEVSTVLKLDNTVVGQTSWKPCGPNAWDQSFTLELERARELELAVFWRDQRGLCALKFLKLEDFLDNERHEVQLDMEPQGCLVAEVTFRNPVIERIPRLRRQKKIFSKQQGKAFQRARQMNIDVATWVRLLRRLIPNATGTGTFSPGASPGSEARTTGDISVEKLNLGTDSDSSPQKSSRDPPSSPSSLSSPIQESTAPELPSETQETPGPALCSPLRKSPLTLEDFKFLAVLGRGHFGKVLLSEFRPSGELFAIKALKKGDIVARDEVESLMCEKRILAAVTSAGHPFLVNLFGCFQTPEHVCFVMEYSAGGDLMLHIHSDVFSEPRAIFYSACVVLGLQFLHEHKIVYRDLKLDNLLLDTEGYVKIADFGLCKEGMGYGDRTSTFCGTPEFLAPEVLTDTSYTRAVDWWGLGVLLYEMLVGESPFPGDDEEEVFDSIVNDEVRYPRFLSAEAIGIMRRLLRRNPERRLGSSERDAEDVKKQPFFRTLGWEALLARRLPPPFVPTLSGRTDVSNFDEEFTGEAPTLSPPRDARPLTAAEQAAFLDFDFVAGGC

[7] = molecular target: Serine/threonine-protein kinase SIK3 (Homo sapiens) (UniProt Q9Y2K2); conditions: Compound concentration 1000.0 nM
[8] = molecular target: Serine/threonine-protein kinase ICK (Homo sapiens) (UniProt Q9UPZ9); conditions: Compound concentration 1000.0 nM
[9] = molecular target: Serine/threonine-protein kinase Nek2 (Homo sapiens) (UniProt P51955); conditions: Compound concentration 1000.0 nM
[10] = molecular target: Alpha-1B adrenergic receptor (Homo sapiens) (UniProt P35368); conditions: Compound concentration 10.0 uM
[11] = molecular target: Serine/threonine-protein kinase PLK3 (Homo sapiens) (UniProt Q9H4B4); conditions: Compound concentration 1000.0 nM
[12] = molecular target: Serine/threonine-protein kinase WNK1 (Homo sapiens) (UniProt Q9H4A3); conditions: Compound concentration 1000.0 nM
[13] = molecular target: SRSF protein kinase 2 (Homo sapiens) (UniProt P78362); conditions: Compound concentration 1000.0 nM
[14] = molecular target: Death-associated protein kinase 2 (Homo sapiens) (UniProt Q9UIK4); conditions: Compound concentration 1000.0 nM
[15] = molecular target: Phosphorylase b kinase gamma catalytic chain, skeletal muscle/heart isoform (Homo sapiens) (UniProt Q16816); conditions: Compound concentration 1000.0 nM
[16] = molecular target: Casein kinase I isoform gamma-3 (Homo sapiens) (UniProt Q9Y6M4); conditions: Compound concentration 1000.0 nM
[17] = molecular target: Serine/threonine-protein kinase 16 (Homo sapiens) (UniProt O75716); conditions: Compound concentration 1000.0 nM
Serine/threonine-protein kinase 16 (Homo sapiens), sequence (O75716 whole entry): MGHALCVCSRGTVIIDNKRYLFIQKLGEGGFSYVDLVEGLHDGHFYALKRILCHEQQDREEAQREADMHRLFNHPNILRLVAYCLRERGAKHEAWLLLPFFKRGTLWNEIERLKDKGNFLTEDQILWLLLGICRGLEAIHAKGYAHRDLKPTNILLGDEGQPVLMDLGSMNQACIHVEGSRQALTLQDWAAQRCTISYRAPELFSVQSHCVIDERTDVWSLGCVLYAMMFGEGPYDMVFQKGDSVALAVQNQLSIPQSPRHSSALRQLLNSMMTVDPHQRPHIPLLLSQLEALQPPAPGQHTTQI

[18] = molecular target: Sigma intracellular receptor 2 (Homo sapiens, UniProt Q5BJF2); conditions: Compound concentration 10.0 uM
[19] = molecular target: Insulin-like growth factor 1 receptor (Homo sapiens) (UniProt P08069); conditions: Compound concentration 1000.0 nM
[20] = molecular target: Eukaryotic translation initiation factor 2-alpha kinase 1 (Homo sapiens) (UniProt Q9BQI3); conditions: Compound concentration 1000.0 nM
[21] = molecular target: T1, 5-hydroxytryptamine receptor 3A (Homo sapiens) (UniProt P46098); conditions: Compound concentration 10.0 uM
T1 sequence (whole entry): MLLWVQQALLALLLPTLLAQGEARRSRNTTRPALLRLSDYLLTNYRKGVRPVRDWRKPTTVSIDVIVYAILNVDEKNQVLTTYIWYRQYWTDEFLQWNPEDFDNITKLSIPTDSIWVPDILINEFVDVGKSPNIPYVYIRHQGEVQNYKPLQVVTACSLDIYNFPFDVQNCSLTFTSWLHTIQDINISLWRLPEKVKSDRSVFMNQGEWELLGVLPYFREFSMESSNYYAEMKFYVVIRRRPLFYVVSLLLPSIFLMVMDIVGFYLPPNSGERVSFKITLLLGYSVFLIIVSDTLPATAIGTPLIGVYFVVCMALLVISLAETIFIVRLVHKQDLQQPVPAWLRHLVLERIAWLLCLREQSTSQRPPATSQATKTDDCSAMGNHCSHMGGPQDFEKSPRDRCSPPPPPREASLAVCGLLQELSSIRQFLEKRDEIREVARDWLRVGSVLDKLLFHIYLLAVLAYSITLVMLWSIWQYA

[22] = system: Mast/stem cell growth factor receptor Kit (Homo sapiens), P10721 [V559D,T670I]; conditions: Compound concentration 1000.0 nM
[23] = molecular target: Protein kinase C theta type (Homo sapiens) (UniProt Q04759); conditions: Compound concentration 1000.0 nM
[24] = molecular target: Casein kinase I isoform alpha-like (Homo sapiens) (UniProt Q8N752); conditions: Compound concentration 1000.0 nM
[25] = molecular target: T2, D(4) dopamine receptor (Homo sapiens) (UniProt P21917); conditions: Compound concentration 10.0 uM
T2 sequence (whole entry): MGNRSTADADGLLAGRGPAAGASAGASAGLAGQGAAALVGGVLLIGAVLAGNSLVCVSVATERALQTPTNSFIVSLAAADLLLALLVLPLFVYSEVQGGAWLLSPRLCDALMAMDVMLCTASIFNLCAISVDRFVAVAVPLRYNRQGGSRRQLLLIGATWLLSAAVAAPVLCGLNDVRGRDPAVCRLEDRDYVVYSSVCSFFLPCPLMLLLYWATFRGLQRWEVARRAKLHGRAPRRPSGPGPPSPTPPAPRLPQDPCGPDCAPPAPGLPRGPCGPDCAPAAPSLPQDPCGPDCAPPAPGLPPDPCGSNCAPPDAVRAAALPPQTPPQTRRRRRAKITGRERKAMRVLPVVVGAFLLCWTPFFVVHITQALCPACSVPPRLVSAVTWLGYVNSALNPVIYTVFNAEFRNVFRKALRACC

[26] = molecular target: Inhibitor of nuclear factor kappa-B kinase subunit epsilon (Homo sapiens) (UniProt Q14164); conditions: Compound concentration 1000.0 nM
[27] = molecular target: Homeodomain-interacting protein kinase 1 (Homo sapiens) (UniProt Q86Z02); conditions: Compound concentration 1000.0 nM
[28] = molecular target: Dual specificity protein kinase CLK4 (Homo sapiens) (UniProt Q9HAZ1); conditions: Compound concentration 1000.0 nM
[29] = system: ALK tyrosine kinase receptor (Homo sapiens), Q9UM73 [L1196M]; conditions: Compound concentration 1000.0 nM
ALK tyrosine kinase receptor (Homo sapiens), Q9UM73 [L1196M], sequence (Q9UM73 whole entry L1196M, looked up): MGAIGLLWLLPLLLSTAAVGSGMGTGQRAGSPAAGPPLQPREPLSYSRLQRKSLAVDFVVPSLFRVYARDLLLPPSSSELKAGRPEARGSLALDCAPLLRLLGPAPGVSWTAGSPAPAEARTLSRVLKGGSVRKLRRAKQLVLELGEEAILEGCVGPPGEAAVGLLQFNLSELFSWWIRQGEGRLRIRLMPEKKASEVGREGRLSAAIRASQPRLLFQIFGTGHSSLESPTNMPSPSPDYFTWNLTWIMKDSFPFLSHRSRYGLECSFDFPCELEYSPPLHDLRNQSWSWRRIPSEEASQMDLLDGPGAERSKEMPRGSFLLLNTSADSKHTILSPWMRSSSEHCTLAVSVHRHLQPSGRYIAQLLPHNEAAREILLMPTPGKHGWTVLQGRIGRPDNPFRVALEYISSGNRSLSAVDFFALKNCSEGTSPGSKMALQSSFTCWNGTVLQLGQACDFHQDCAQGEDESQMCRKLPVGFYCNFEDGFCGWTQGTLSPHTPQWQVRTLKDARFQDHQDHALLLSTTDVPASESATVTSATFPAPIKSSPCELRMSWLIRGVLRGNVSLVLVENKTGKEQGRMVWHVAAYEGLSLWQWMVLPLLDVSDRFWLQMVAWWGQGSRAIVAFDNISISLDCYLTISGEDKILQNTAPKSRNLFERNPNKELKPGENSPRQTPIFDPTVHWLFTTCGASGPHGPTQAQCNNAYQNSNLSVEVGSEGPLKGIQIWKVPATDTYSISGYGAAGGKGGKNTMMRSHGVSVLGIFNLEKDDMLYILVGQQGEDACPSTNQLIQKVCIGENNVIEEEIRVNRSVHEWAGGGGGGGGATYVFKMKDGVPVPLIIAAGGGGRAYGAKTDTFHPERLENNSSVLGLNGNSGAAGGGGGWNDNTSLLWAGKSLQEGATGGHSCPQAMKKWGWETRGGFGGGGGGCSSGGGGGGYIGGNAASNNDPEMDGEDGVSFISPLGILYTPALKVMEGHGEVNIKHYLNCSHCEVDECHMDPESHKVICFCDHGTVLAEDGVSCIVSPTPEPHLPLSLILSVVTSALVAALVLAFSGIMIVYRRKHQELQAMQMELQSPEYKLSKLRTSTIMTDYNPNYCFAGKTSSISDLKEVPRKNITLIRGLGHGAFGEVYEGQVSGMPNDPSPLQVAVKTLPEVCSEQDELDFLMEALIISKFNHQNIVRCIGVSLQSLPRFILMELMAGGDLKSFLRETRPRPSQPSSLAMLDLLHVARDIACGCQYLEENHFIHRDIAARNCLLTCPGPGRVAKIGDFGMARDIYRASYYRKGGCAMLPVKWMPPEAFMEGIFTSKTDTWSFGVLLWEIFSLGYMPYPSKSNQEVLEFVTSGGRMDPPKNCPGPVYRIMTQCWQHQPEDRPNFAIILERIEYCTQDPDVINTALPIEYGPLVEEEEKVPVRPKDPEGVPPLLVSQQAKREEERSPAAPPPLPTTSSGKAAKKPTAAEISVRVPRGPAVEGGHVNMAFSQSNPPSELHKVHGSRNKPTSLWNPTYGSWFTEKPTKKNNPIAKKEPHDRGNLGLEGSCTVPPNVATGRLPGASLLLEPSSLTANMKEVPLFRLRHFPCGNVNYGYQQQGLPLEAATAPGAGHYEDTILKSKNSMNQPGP

[30] = molecular target: Serine/threonine-protein kinase DCLK2 (Homo sapiens) (UniProt Q8N568); conditions: Compound concentration 1000.0 nM
[31] = molecular target: Serine/threonine-protein kinase SIK1 (Homo sapiens) (UniProt P57059); conditions: Compound concentration 1000.0 nM
Serine/threonine-protein kinase SIK1 (Homo sapiens), sequence (P57059 whole entry): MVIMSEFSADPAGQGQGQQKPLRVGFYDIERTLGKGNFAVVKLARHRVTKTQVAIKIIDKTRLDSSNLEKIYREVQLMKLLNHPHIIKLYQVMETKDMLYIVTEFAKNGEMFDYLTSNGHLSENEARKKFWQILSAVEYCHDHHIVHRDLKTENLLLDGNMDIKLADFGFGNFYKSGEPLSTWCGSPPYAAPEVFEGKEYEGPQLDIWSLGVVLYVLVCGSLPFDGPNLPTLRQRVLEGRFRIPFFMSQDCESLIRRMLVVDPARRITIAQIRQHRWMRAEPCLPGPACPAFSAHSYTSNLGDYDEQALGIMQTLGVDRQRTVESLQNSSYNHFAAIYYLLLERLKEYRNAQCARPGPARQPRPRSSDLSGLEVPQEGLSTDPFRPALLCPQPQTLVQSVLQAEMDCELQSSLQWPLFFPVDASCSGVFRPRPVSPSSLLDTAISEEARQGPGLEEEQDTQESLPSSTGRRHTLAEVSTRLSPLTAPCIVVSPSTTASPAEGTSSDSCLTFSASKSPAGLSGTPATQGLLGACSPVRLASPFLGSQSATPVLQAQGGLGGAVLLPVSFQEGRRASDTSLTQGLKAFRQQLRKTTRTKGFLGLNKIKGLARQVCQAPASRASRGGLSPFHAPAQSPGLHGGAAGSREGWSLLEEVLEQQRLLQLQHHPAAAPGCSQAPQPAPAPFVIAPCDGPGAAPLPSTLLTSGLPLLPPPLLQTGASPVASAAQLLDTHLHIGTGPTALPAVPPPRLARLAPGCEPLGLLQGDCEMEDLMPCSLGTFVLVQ

[32] = molecular target: Activin receptor type-1-like (Homo sapiens) (UniProt P37023); conditions: Compound concentration 1000.0 nM
[33] = molecular target: Tyrosine-protein kinase Fer (Homo sapiens) (UniProt P16591); conditions: Compound concentration 1000.0 nM

Cyclin-dependent kinase 3 (Homo sapiens), sequence (Q00526 whole entry, looked up): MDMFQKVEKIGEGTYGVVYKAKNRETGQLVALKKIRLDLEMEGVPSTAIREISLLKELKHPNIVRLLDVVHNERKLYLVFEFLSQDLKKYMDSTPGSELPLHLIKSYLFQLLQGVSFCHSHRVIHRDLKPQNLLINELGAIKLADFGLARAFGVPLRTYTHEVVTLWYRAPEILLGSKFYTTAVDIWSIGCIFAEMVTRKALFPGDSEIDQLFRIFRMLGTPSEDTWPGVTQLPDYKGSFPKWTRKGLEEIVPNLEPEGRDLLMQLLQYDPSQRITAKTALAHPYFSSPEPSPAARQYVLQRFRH
Receptor-type tyrosine-protein kinase FLT3 (Homo sapiens), P36888 [UNDEFINED MUTATION], sequence (P36888 whole entry, looked up, change not shown): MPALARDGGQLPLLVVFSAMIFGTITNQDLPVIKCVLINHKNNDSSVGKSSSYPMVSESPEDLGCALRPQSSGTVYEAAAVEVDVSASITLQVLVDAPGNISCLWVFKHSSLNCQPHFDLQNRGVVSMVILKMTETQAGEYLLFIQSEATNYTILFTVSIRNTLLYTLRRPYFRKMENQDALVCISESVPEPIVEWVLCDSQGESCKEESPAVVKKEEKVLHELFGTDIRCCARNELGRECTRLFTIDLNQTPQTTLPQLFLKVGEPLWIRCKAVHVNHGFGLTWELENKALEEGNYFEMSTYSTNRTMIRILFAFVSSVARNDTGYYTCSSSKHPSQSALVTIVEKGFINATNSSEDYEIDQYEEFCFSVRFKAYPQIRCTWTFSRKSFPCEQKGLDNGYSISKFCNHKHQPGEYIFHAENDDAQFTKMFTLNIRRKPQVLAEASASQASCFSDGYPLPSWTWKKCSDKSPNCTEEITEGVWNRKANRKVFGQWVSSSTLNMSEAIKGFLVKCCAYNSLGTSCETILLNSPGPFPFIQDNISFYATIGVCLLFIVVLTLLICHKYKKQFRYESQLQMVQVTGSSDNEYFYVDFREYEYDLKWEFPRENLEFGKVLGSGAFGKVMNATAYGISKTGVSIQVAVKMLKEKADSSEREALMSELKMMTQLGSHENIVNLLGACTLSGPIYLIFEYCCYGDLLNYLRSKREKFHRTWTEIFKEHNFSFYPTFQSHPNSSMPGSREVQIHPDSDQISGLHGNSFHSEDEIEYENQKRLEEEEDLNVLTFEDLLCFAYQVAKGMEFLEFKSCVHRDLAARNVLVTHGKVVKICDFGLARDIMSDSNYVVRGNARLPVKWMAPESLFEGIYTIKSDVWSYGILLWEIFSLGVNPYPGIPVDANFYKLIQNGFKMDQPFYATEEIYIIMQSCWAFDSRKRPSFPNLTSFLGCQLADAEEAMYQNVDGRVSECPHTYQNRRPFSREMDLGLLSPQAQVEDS

| SMILES | residual activity [1] [%] | residual activity [2] [%] | inhibition [3] [%] | residual activity [4] [%] | residual activity [5] [%] | residual activity [6] [%] | residual activity [7] [%] | residual activity [8] [%] | residual activity [9] [%] | inhibition [10] [%] | residual activity [11] [%] | residual activity [12] [%] | residual activity [13] [%] | residual activity [14] [%] | residual activity [15] [%] | residual activity [16] [%] | residual activity [17] [%] | inhibition [18] [%] | residual activity [19] [%] | residual activity [20] [%] | also measured |
| --- | --- | --- | --- | --- | --- | --- | --- | --- | --- | --- | --- | --- | --- | --- | --- | --- | --- | --- | --- | --- | --- |
| C[C@H](NC(=O)c1cnc2n1[C@](C)(Cc1ccc(C#N)cc1)C(=O)N2c1cc(Cl)c(F)c(Cl)c1)C(=O)NC1(c2ccccn2)CC1 [BI 1950] | 100 | 100 | -3.54 | 100 | 100 | 100 | 76 | 100 | 95 | 2.35 | 81 | 100 | 100 | 100 | 100 | 100 | 100 | 25.9 | 99 | 93 | inhibition [21]: -2.51%; residual activity [22]: 100%; residual activity [23]: 100%; residual activity [24]: 100%; inhibition [25]: -2.68%; residual activity [26]: 89%; residual activity [27]: 97%; residual activity [28]: 88%; residual activity [29]: 100%; residual activity [30]: 100%; residual activity [31]: 100%; residual activity [32]: 100%; residual activity [33]: 100% |
| C[C@@]1(Cc2ccc(C#N)cc2)C(=O)N(c2cc(Cl)cc(Cl)c2)c2ncc(C(=O)NC3(c4nc(C5CCC5)no4)CC3)n21 [BI 9446] | 100 | 100 | 9.55 | 100 | 100 | 100 | 98 | 100 | 83 | 23.8 | 100 | 99 | 100 | 84 | 100 | 100 | 100 | 58 | 100 | 100 | inhibition [21]: 17.9%; residual activity [22]: 100%; residual activity [23]: 98%; residual activity [24]: 89%; inhibition [25]: 13.6%; residual activity [26]: 80%; residual activity [27]: 100%; residual activity [28]: 97%; residual activity [29]: 100%; residual activity [30]: 100%; residual activity [31]: 100%; residual activity [32]: 100%; residual activity [33]: 100% |
